In US8901111B2, “Aryl-substituted heterocyclic urea modulators of fatty acid amide hydrolase” (Janssen Pharmaceutica NV, priority 2009, dated 2014):
Where a name gives a salt, the structure may show the parent alone.

How the values were obtained:
neuropathic pain = conditions: rats; WO 02/087569; cited from earlier work
[1] = test system: acute thermal nociception; conditions: rats; WO 02/087569; cited from earlier work
spasticity = conditions: Baker 2001; cited from earlier work
thermal nociception [2] = conditions: cited from earlier work
FAAH [3] = biological target: T1, FAAH (Homo sapiens, UniProt O00519); conditions: reported; cited from earlier work
T1 sequence (O00519 1-579): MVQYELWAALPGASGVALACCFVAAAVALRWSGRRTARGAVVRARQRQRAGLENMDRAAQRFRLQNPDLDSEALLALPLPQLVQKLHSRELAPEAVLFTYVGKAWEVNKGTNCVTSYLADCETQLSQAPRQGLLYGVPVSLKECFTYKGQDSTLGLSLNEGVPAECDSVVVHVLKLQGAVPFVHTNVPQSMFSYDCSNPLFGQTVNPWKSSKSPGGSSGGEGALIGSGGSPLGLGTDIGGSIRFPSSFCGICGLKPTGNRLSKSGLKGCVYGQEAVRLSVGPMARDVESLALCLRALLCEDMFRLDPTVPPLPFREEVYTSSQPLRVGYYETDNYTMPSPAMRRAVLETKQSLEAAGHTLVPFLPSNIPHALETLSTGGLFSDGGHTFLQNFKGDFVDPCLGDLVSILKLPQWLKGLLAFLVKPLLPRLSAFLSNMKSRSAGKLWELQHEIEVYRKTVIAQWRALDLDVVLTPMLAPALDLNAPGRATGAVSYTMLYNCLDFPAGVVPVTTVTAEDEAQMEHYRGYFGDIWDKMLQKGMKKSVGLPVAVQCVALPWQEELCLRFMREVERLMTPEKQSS

thermal nociception [4] = conditions: rats; WO 04/033652; cited from earlier work
FAAH [5] = biological target: T1, FAAH; assay: Assay Method 1: FAAH assay, 3H-anandamide hydrolysis in homogenate of cells transfected with human FAAH; assay type: biochemical; parameters: expressed in transfected cells; crude homogenate (T84 cell pellets named as alternative); conditions: cell homogenate, 3H-AEA 80 nM, 1 h at rt, average of results
How it was run: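 Homogenates of SK-N-MC cells stably transfected with human FAAH (or T84 cells) in pH 9 Tris/EDTA/glycerol/Triton buffer, incubated with compound and 80 nM final ^3H-anandamide for 1 h at rt. Released ^3H-ethanolamine separated through activated charcoal by centrifugation and counted by scintillation.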

rat FAAH = biological target: T2, rat FAAH (Rattus norvegicus, UniProt P97612); assay: Assay Method 2: FAAH assay, 3H-anandamide hydrolysis in homogenate of cells transfected with rat FAAH; assay type: biochemical; conditions: cell homogenate, 3H-AEA 80 nM, 1 h at rt, average of results
T2 construct: expressed in transfected cells; crude homogenate
T2 sequence (P97612 1-579): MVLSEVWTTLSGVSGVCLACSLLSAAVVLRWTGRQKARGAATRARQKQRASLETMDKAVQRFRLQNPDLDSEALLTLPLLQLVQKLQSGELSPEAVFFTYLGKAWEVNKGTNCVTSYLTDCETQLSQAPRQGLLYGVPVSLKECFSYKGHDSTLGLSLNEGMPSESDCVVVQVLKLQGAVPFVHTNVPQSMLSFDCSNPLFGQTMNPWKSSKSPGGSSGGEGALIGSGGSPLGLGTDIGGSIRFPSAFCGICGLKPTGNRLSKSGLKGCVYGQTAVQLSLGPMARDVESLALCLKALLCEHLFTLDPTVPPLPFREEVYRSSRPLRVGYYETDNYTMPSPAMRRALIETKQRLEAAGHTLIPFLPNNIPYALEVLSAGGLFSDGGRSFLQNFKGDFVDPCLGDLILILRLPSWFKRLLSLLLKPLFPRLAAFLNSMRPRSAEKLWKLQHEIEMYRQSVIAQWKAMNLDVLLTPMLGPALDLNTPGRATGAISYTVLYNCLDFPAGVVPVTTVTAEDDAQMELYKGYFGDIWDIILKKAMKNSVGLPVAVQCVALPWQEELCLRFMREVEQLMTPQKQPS
How it was run: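 Homogenate of SK-N-MC cells stably transfected with rat FAAH, in pH 9 Tris/EDTA/glycerol/Triton buffer, incubated 1 h at rt with 80 nM final [1-3H-ethanolamine]anandamide. Released 3H-ethanolamine separated from substrate on activated charcoal filters by centrifugation and quantified by scintillation counting.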

[6] = Kathuria 2003; cited from earlier work
anxiety = conditions: rats; Kathuria 2003; cited from earlier work

| SMILES | IC50 (FAAH [5]) | IC50 (rat FAAH) | also measured |
| --- | --- | --- | --- |
| Cc1nc(-c2ccccc2)c(-c2ccccc2)n1CCCCCCNC(=O)Oc1ccccc1F [BMS-1] | – | – | analgesic effect in Chung spinal nerve ligation model (neuropathic pain): analgesic effect; analgesic effect in Hargraves test [1]: analgesic effect |
| CCCCCCCCCCCCCCCCS(=O)(=O)F [AM374] | – | – | spasticity in CREAE mice (spasticity): significantly reduce spasticity |
| O=C(CCCCCCc1ccccc1)c1ncc(-c2ccccn2)o1 [OL-135] | – | – | analgesic activity in hot plate test (thermal nociception [2]; rats, WO 04/033652): analgesic activity; inhibition of FAAH (FAAH [3]): potent inhibitor; analgesic activity in tail emersion test (thermal nociception [4]): analgesic activity |
| O=C(Nc1cccnc1)N1CC(COc2cccc(C(F)(F)F)c2)C1 [Example 8, 3-(3-Trifluoromethyl-phenoxymethyl)-azetidine-1-carboxylic acid pyridin-3-ylamide, trifluoroacetate salt] | 2400 nM | 620 nM | – |
| O=C(Nc1cncc2ccccc12)N1CC(CCOc2cccc(Oc3ccc(Cl)cc3)c2)C1 [Example 38, 3-{2-[3-(4-Chloro-phenoxy)-phenoxy]-ethyl}-azetidine-1-carboxylic acid isoquinolin-4-ylamide] | 27 nM | 5 nM | – |
| O=C(Nc1cnc2[nH]ccc2c1)N1CC(CCOc2cccc(Oc3ccc(Cl)cc3)c2)C1 [Example 40, 3-{2-[3-(4-Chloro-phenoxy)-phenoxy]-ethyl}-azetidine-1-carboxylic acid (1H-pyrrolo[2,3-b]pyridin-5-yl)-amide] | 3 nM | 4 nM | – |
| O=C(Nc1noc2ccccc12)N1CC(CCOc2cccc(Oc3ccc(Cl)cc3)c2)C1 [Example 43, 3-{2-[3-(4-Chloro-phenoxy)-phenoxy]-ethyl}-azetidine-1-carboxylic acid benzo[d]isoxazol-3-ylamide] | 4 nM | 1 nM | – |
| NC(=O)c1cccc(-c2cccc(OC(=O)NC3CCCCC3)c2)c1 [URB-597] | – | – | analgesic efficacy in rat formalin test [6]: analgesic efficacy; efficacy in zero plus maze model of anxiety (anxiety): efficacy; analgesic efficacy in rat hot plate test (thermal nociception [2]; rat, Kathuria 2003): analgesic efficacy |
| O=C(Nc1cccnc1)N1CC(CCOc2ccc(Cl)c(C(F)(F)F)c2)C1 [Example 45, 3-[2-(4-Chloro-3-trifluoromethyl-phenoxy)-ethyl]-azetidine-1-carboxylic acid pyridin-3-ylamide] | 700 nM | 43 nM | – |
| O=C(Nc1cccnc1)N1CC(CCOc2ccc(Cl)c(Cl)c2)C1 [Example 34, 3-[2-(3,4-Dichloro-phenoxy)-ethyl]-azetidine-1-carboxylic acid pyridin-3-ylamide] | 30 nM | 54 nM | – |
| CS(=O)(=O)c1ccc(Oc2cccc(OCCC3CN(C(=O)Nc4cccnc4)C3)c2)cc1 [Example 27, 3-{2-[3-(4-Methanesulfonyl-phenoxy)-phenoxy]-ethyl}-azetidine-1-carboxylic acid pyridin-3-ylamide] | 15 nM | 480 nM | – |
| O=C(Nc1cccnc1)N1CCC(CCOc2cccc(OC(F)(F)F)c2)C1 (stereo not drawn) [Example 59, 3-[2-(3-Trifluoromethoxy-phenoxy)-ethyl]-pyrrolidine-1-carboxylic acid pyridin-3-ylamide] | > 10000 nM | > 10000 nM | – |
| O=C(Nc1cccnc1)N1CC(COc2ccc(C(F)(F)F)c(Cl)c2)C1 [Example 10, 3-(3-Chloro-4-trifluoromethyl-phenoxymethyl)-azetidine-1-carboxylic acid pyridin-3-ylamide] | 1400 nM | 300 nM | – |
| O=C(Nc1cnccc1Cl)N1CC(CCOCc2ccc(Cl)c(Cl)c2)C1 [Example 67, 3-[2-(3,4-Dichloro-benzyloxy)-ethyl]-azetidine-1-carboxylic acid (4-chloro-pyridin-3-yl)-amide] | 39 nM | 84 nM | – |
| O=C(Nc1cccnc1)N1CC(CCOc2cccc(Oc3ccc(OC(F)(F)F)cc3)c2)C1 [Example 29, 3-{2-[3-(4-Trifluoromethoxy-phenoxy)-phenoxy]-ethyl}-azetidine-1-carboxylic acid pyridin-3-ylamide] | 53 nM | 400 nM | – |
| O=C(Nc1cccnc1)N1CC(COc2cccc(OC(F)(F)F)c2)C1 [Example 6, 3-(3-Trifluoromethoxy-phenoxymethyl)-azetidine-1-carboxylic acid pyridin-3-ylamide] | 1100 nM | 175 nM | – |

Now from value to molecule, other results behind:

| IC50 (FAAH [5]) | IC50 (rat FAAH) | SMILES | also measured |
| --- | --- | --- | --- |
| 1300 nM | 1300 nM | O=C(Nc1cccnc1)N1CC(COc2ccc3ccccc3n2)C1 [Example 9, 3-(Quinolin-2-yloxymethyl)-azetidine-1-carboxylic acid pyridin-3-ylamide] | – |
| 300 nM | 940 nM | O=C(Nc1cccnc1)N1CC(COc2cccc(OCc3ccccc3)c2)C1 [Example 23, 3-(3-Benzyloxy-phenoxymethyl)-azetidine-1-carboxylic acid pyridin-3-ylamide] | – |
| > 10000 nM | > 10000 nM | O=C(Nc1cccnc1)N1CC(COc2ccc(OCc3ccccc3)cc2)C1 [Example 19, 3-(4-Benzyloxy-phenoxymethyl)-azetidine-1-carboxylic acid pyridin-3-ylamide] | – |
| > 10000 nM | > 10000 nM | O=C(Nc1cccnc1)N1CC(COc2ccc3cccnc3c2)C1 [Example 14, 3-(Quinolin-7-yloxymethyl)-azetidine-1-carboxylic acid pyridin-3-ylamide] | – |
| 360 nM | 430 nM | O=C(Nc1cccnc1)N1CC(CCOc2cccc(Oc3ccccc3)c2)C1 [Example 32, 3-[2-(3-Phenoxy-phenoxy)-ethyl]-azetidine-1-carboxylic acid pyridin-3-ylamide] | – |
| 170 nM | 340 nM | O=C(Nc1cccnc1)N1CC(COc2cccc(Oc3ccccc3)c2)C1 [Example 17, 3-(3-Phenoxy-phenoxymethyl)-azetidine-1-carboxylic acid pyridin-3-ylamide] | – |
| 1300 nM | 500 nM | O=C(Nc1cccnc1)N1CC(COc2ccc3cccc(Cl)c3n2)C1 [Example 22, 3-(8-Chloro-quinolin-2-yloxymethyl)-azetidine-1-carboxylic acid pyridin-3-ylamide] | – |
| 1000 nM | 1600 nM | O=C(Nc1cccnc1)N1CC(COc2ccc3ccccc3c2)C1 [Example 20, 3-(Naphthalen-2-yloxymethyl)-azetidine-1-carboxylic acid pyridin-3-ylamide] | – |
| > 10000 nM | > 10000 nM | O=C(Nc1cccnc1)N1CC(COc2ccc(-c3ccccc3)cc2)C1 [Example 18, 3-(Biphenyl-4-yloxymethyl)-azetidine-1-carboxylic acid pyridin-3-ylamide] | – |
